Results published in patent publication US20240246981A1, “[…] DERIVATIVES AS INHIBITORS OF […]-PEPTIDE CYCLOTRANSFERASE AND […]-PEPTIDE CYCLOTRANSFERASE LIKE PROTEIN” (Boehringer Ingelheim International GmbH, priority 2022, published 2024).
pIC50: −log10 of the molar value.

How the values were obtained:
[1] = Assay C: permeability in CACO-2 cells; format: in vitro ADME; conditions: human, pH 7.2, compounds of the invention, Table 7; for Papp A→B: Caco-2, apical to basolateral; for efflux ratio: Caco-2
Procedure: Compounds are dissolved in appropriate solvent (like DMSO, 1-20 mM stock solutions). […] The transport solution (TL) is applied to the apical or basolateral donor side for measuring A-B or B-A permeability (3 filter replicates), respectively. Samples are collected at the start and end of experiment from the donor and at various time intervals for up to 2 hours also from the receiver side for concentration measurement by HPLC-MS/MS or scintillation counting. Sampled receiver volumes are replaced with fresh receiver solution.

[2] = system: SIRPα signalling induced by Raji cells; assay: Assay B: SIRPα signalling assay using Raji cells; format: cell-based, human; conditions: Homo sapiens, compounds of the invention, Table 4, read-out: Inhibition of SIRα signalling induced by Raji cells: IC50
Procedure: Bioassay reagent 1 of the PathHunter Bioassay detection kit (DiscoverX 93-0001) was added to each well of the plate using a multichannel pipette followed by a 15 min incubation at room temperature. Afterwards bioassay reagent 2 was added followed by 60 min incubation at room temperature (incubation in the dark).
(§1) The analysis of the data was performed using the luminescence signal generated by beta-galactosidase in the PathHunter reporter cell line. The luminescence measurement was done using a Pherastar Multi-Mode Reader.

[3] = system: SIRPα signalling induced by A549 cells; assay: Assay B: SIRPα signalling assay using A549 cells; format: cell-based, human; conditions: Homo sapiens, compounds of the invention, Table 4, read-out: Inhibition of SIRα signalling induced by A549 cells: IC50
Procedure: Two cell types are independently used: the Raji cell line (lymphoblastlike human cell line derived from B lymphocytes from a Burkitt's lymphoma patient in 1963) and A549 cells (adenocarcinomic human alveolar basal epithelial cells).
Test compounds were dissolved in 100% DMSO and serially diluted into a white 384-well microtiter cell culture plate (PerkinElmer #60076780 in case of Raji assay; PDL-coated plates Greiner #781945 in case of A549 assay). 5000 Raji cells (ATCC #CC86) or 5000 A549 cells (ATCC #CCL-185) in Assay Complete Cell Plating reagent 30 (DiscoverX 93-0563R30B) were added per well. The assay plate was incubated for 48 h at 37° C., 95% humidity and 5% CO2. 15000 reporter cells (Jurkat PathHunter SIRPα V1, DiscoverX #93-1135C19) were added to each well, and the plate was incubated for 5 h at 37° C., 95% humidity and 5% CO2. Bioassay reagent 1 of the PathHunter Bioassay detection kit (DiscoverX 93-0001) was added to each well of the plate using a multichannel pipette followed by a 15 min incubation at room temperature. Afterwards bioassay reagent 2 was added followed by 60 min incubation at room temperature (incubation in the dark).
as §1, with “Reader. Dose-response curves & IC50 data were calculated with 4-parameter sigmoidal dose response formula.” for “Reader.”

[4] = target: QPCTL (Homo sapiens (Human), UniProt Q9NXS2); assay: Assay A: biochemical QPCTL activity assay (MALDI-TOF MS); conditions: compounds of the invention, Table 2; read-out: Inhibition of QPCTL: IC50
Procedure: (§2) QPCT or QPCTL dependent conversion of N-terminal glutamine to pyroglutamate of CD47 was monitored via MALDI-TOF MS. Test compounds were dissolved in 100% DMSO and serially diluted into clear 1,536-well microtiter plates. Enzymatic reactions were set up in assay buffer containing 20 mM Tris pH 7.5, 0.1 mM TCEP, 0.01% BSA, and 0.001% Tween20. […] The plates were incubated for 10 min in a humidified incubator at 24° C. Subsequently, 2.5 μL of CD47 peptide substrate surrogate (^19[…]^33) was added to each well (final concentration: 10 μM for QPCTL/20 μM for QPCT). The plates were mixed for 30 sec at 1,000 rpm and subsequently incubated for 40 min in a humidified incubator at 24° C. […] The plates were sealed with an adhesive foil, mixed for 30 s at 1,000 rpm and stored at room temperature until preparation of the MALDI target plates. […] QPCT or QPCTL activity was monitored by calculating the ratio between product and internal standard signals followed by normalization to high (100% activity) and low (0% activity) controls. Determination of compound potencies was obtained by fitting the dose-response data to a four-parameter logistical equation.

[5] = target: QPCT (Homo sapiens (Human), UniProt Q16769); assay: Assay A: biochemical QPCT activity assay (MALDI-TOF MS); conditions: compounds of the invention, Table 2; read-out: Inhibition of QPCT: IC50
Procedure: as §2

Sequence of QPCTL (Q9NXS2 whole entry): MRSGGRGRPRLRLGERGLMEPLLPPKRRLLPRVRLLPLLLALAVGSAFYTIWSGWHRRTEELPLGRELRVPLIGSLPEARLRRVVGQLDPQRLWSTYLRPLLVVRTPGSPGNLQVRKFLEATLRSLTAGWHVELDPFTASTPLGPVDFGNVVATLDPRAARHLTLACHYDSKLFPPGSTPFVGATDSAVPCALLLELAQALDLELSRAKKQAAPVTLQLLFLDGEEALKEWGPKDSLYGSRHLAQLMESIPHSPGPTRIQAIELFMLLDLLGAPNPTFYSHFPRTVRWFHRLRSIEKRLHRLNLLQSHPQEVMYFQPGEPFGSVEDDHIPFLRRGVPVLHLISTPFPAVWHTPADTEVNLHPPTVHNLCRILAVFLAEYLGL
Sequence of QPCT (Q16769 29-361): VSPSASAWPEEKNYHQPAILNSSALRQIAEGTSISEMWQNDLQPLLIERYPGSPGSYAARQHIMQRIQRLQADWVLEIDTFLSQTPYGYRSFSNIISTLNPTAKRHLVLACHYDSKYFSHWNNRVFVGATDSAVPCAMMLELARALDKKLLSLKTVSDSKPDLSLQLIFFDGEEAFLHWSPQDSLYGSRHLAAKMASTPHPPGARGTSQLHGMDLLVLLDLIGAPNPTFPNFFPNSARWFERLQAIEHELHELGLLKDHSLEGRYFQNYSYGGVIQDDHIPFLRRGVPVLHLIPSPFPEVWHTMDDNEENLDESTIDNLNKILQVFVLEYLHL

Row | Papp A→B [1] [×10⁻⁶ cm/s] | efflux ratio [1] | pIC50 [2] | pIC50 [3] | pIC50 [4] | pIC50 [5] | SMILES
1 | 7.4 | 7.4 | 6.25 | 6.47 | 7.85 | 7.08 | Cn1cnnc1C1CCN(c2c(C#N)cccc2-c2cnc3c(c2)OCO3)CC1 [compound 25]
2 | 8.6 | 7.7 | 6.43 | 6.36 | 7.68 | 6.89 | Cc1cncc(-c2cccc(C#N)c2N2CCC(c3nncn3C)CC2)c1 [compound 11]
3 | 0.6 | 47.5 | 6.44 | 6.56 | 8.15 | 7.89 | Cn1cnnc1C1(F)CCN(c2c(C#N)cccc2-c2cnc3ncccc3c2)CC1 [compound 68]
4 | < 0.3 | > 32 | 6.87 | 6.91 | 9.00 | 8.52 | Cn1ccnc1-c1cncc(-c2cccc(C#N)c2N2CCC(c3nncn3C)CC2)c1 [compound 30]
5 | 0.1 | 100 | 6.67 | 6.96 | 9.00 | 8.40 | Cn1cnnc1C1CCN(c2c(C#N)cccc2-c2cnc3nnn(C)c3c2)CC1 [compound 40]
6 | 23 | 1.6 | 7.03 | 7.59 | 8.52 | 7.92 | Cc1cc(-c2cccc(C#N)c2N2CCC(c3nncn3C)CC2)cnc1F [compound 5]
7 | 3.3 | 14.8 | 6.58 | 6.91 | 8.40 | 8.10 | Cn1cnnc1C1(F)CCN(c2c(C#N)cccc2-c2cnc3nc(C(F)(F)F)nn3c2)CC1 [compound 73]
8 | 25 | 2.2 | 6.16 | 6.46 | 7.74 | 7.12 | CC#Cc1cncc(-c2cccc(C#N)c2N2CCC(c3nncn3C)CC2)c1 [compound 10]
9 | 0.2 | 50.6 | 7.06 | 6.94 | 9.00 | 8.52 | Cn1cc2cc(-c3cccc(C#N)c3N3CCC(c4nncn4C)CC3)cnc2n1 [compound 22]
10 | 1.7 | 14.1 | 7.74 | 7.59 | 9.00 | 9.00 | Cn1cnnc1C1(F)CCN(c2c(C#N)cccc2-c2cnc3nc(C(F)(F)F)cn3c2)CC1 [compound 74]
11 | 10.3 | 8.7 | 6.13 | 6.52 | 7.55 | 6.98 | Cn1cnnc1C1CCN(c2c(C#N)cccc2-c2cncc(C3CC3)c2)CC1 [compound 15]
12 | 0.3 | 28.1 | 6.80 | 7.16 | 9.00 | 8.22 | Cn1cnnc1C1CCN(c2c(C#N)cccc2-c2ccnnc2)CC1 [compound 32]
13 | 13 | 6 | 7.11 | 7.28 | 8.70 | 8.10 | Cn1cnnc1C1CCN(c2c(C#N)cccc2-c2cnc(F)c(OC3CC3)c2)CC1 [compound 47]
14 | 8 | 8.9 | 7.64 | 7.66 | 8.70 | 9.00 | Cn1cnnc1C1(F)CCN(c2c(C#N)cccc2-c2cnc3nn(C(C)(C)C(F)(F)F)cc3c2)CC1 [compound 61]
15 | 2.6 | 22.3 | 7.40 | 7.34 | 9.00 | 8.30 | Cn1cnnc1C1CCN(c2c(C#N)cccc2-c2cncc3cnn(Cc4ccccc4)c23)CC1 [compound 76]
16 | 12 | 4 | 8.15 | 8.15 | 9.00 | 9.00 | Cn1cnnc1C1(F)CCN(c2c(C#N)cccc2-c2cnc3nn(C(F)(F)F)cc3c2)CC1 [compound 75]
17 | 3.9 | 14.4 | 7.55 | 7.70 | 9.00 | 9.00 | Cn1cnnc1C1(F)CCN(c2c(C#N)cccc2-c2cnc3nc(C(C)(C)C)nn3c2)CC1 [compound 72]
18 | 3.9 | 11 | 6.35 | 6.61 | 8.30 | 7.96 | Cn1cnnc1C1CCN(c2c(C#N)cccc2-c2cnn3ncccc23)CC1 [compound 57]
19 | 0.7 | 52.3 | 6.43 | 5.73 | 7.52 | 7.06 | Cn1cnnc1C1CCN(c2c(C#N)cccc2-c2cncc3cn(Cc4ccccc4)nc23)CC1 [compound 77]
20 | 39 | 2 | 7.28 | 7.74 | 9.00 | 8.05 | CC(C)Oc1cc(-c2cccc(C#N)c2N2CCC(c3nncn3C)CC2)cnc1F [compound 19]
21 | 2.7 | 23.7 | 6.38 | 6.61 | 7.92 | 7.24 | Cn1cnnc1C1CCN(c2c(C#N)cccc2-c2cnc3c(c2)CCCO3)CC1 [compound 12]
22 | 6.5 | 7.4 | 6.34 | 6.36 | 7.47 | 7.38 | Cn1cnnc1C1(F)CCN(c2c(C#N)cccc2-c2cncc3cn(Cc4ccccc4)nc23)CC1 [compound 78]
23 | 4.9 | 19 | 7.68 | 7.96 | 9.00 | 9.00 | Cn1cnnc1C1(F)CCN(c2c(C#N)cccc2-c2cnc3nn(C(C)(C)C)cc3c2)CC1 [compound 62]
24 | 22 | 3 | 6.83 | 7.28 | 8.30 | 7.55 | Cn1cnnc1C1CCN(c2c(C#N)cccc2-c2cnc(F)c(F)c2)CC1 [compound 20]
25 | 2.7 | 24.4 | 7.31 | 7.57 | 8.70 | 9.00 | Cn1cnnc1C1(F)CCN(c2c(C#N)cccc2-c2cnc3nc(C(C)(C)C)cn3c2)CC1 [compound 71]
26 | 39 | 0.7 | 7.57 | 7.57 | 9.00 | 8.30 | Cn1cnnc1C1CCN(c2c(C#N)cccc2-c2cnn3nc(-c4cccc(Cl)c4)ccc23)CC1 [compound 81]
27 | 25 | 1.8 | 6.15 | 7.40 | 7.92 | 7.29 | Cn1cnnc1C1CCN(c2c(C#N)cccc2-c2cnsc2)CC1 [compound 2]
28 | 34 | 2.4 | 7.72 | 8.00 | 9.00 | 8.70 | Cn1cnnc1C1CCN(c2c(C#N)cccc2-c2cnc(F)c(OCC3CC3)c2)CC1 [compound 36]
